{"source": "PubChem BioAssay (NCI)", "assay_in_all_cases": "DTP human tumour cell line panel, 48 h", "key": {"SF-295 CNS": {"system": "SF-295 CNS"}, "U251 CNS": {"system": "U251 CNS"}, "A498 renal": {"system": "A498 renal"}, "HCC-2998 colon": {"system": "HCC-2998 colon"}, "NCI/ADR-RES ovarian": {"system": "NCI/ADR-RES ovarian"}, "LOX IMVI melanoma": {"system": "LOX IMVI melanoma"}, "OVCAR-5 ovarian": {"system": "OVCAR-5 ovarian"}, "EKVX NSCLC": {"system": "EKVX NSCLC"}, "HOP-62 NSCLC": {"system": "HOP-62 NSCLC"}, "SR leukemia": {"system": "SR leukemia"}, "MDA-MB-435": {"system": "MDA-MB-435"}, "NCI-H522 lung": {"system": "NCI-H522 lung"}, "NCI-H23 lung": {"system": "NCI-H23 lung"}, "SK-MEL-28 melanoma": {"system": "SK-MEL-28 melanoma"}, "SN12C renal": {"system": "SN12C renal"}, "HS 578T breast": {"system": "HS 578T breast"}, "KM12 colon": {"system": "KM12 colon"}, "SNB-19 CNS": {"system": "SNB-19 CNS"}, "IGROV1 ovarian": {"system": "IGROV1 ovarian"}, "MOLT-4 leukemia": {"system": "MOLT-4 leukemia"}, "CAKI-1 renal": {"system": "CAKI-1 renal"}, "A549 NSCLC": {"system": "A549 NSCLC"}, "MCF7 breast": {"system": "MCF7 breast"}, "TK-10 renal": {"system": "TK-10 renal"}, "SF-268 CNS": {"system": "SF-268 CNS"}, "T-47D breast": {"system": "T-47D breast"}, "COLO 205 colon": {"system": "COLO 205 colon"}, "OVCAR-4 ovarian": {"system": "OVCAR-4 ovarian"}, "ACHN renal": {"system": "ACHN renal"}}, "note": "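Results reflect a 48-hour exposure of cells in 96-well plates to compound at five concentrations. Here, GI50 denotes the concentration required for 50% inhibition of growth. TGI: total growth inhibition.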", "data": [{"smiles": "O=C(Nc1ccc(-n2ccc3c(NC(=O)c4ccccc4)ncnc32)cc1)c1ccc(Cl)c(C(F)(F)F)c1", "values": [{"measurement": "GI50", "setting": "SF-295 CNS", "result": 1.91, "unit": "µM"}, {"measurement": "TGI", "setting": "SF-295 CNS", "result": 20, "unit": "µM"}, {"measurement": "GI50", "setting": "U251 CNS", "result": 0.462, "unit": "µM"}, {"measurement": "TGI", "setting": "U251 CNS", "result": 5.75, "unit": "µM"}, {"measurement": "GI50", "setting": "A498 renal", "result": 13, "unit": "µM"}, {"measurement": "TGI", "setting": "A498 renal", "result": 29.4, "unit": "µM"}, {"measurement": "GI50", "setting": "HCC-2998 colon", "result": 4.5, "unit": "µM"}, {"measurement": "TGI", "setting": "HCC-2998 colon", "result": 23.5, "unit": "µM"}, {"measurement": "GI50", "setting": "NCI/ADR-RES ovarian", "result": 3.1, "unit": "µM"}, {"measurement": "TGI", "setting": "NCI/ADR-RES ovarian", "result": 23.5, "unit": "µM"}, {"measurement": "GI50", "setting": "LOX IMVI melanoma", "result": 0.321, "unit": "µM"}, {"measurement": "TGI", "setting": "LOX IMVI melanoma", "result": 3.71, "unit": "µM"}, {"measurement": "GI50", "setting": "OVCAR-5 ovarian", "result": 3.87, "unit": "µM"}, {"measurement": "TGI", "setting": "OVCAR-5 ovarian", "result": 22.5, "unit": "µM"}, {"measurement": "GI50", "setting": "EKVX NSCLC", "result": 5.66, "unit": "µM"}, {"measurement": "TGI", "setting": "EKVX NSCLC", "result": 25.4, "unit": "µM"}, {"measurement": "GI50", "setting": "HOP-62 NSCLC", "result": 3.45, "unit": "µM"}, {"measurement": "TGI", "setting": "HOP-62 NSCLC", "result": 11.2, "unit": "µM"}, {"measurement": "GI50", "setting": "SR leukemia", "result": 0.145, "unit": "µM"}, {"measurement": "TGI", "setting": "SR leukemia", "result": "> 20.1", "unit": "µM"}, {"measurement": "GI50", "setting": "MDA-MB-435", "result": 2.12, "unit": "µM"}, {"measurement": "TGI", "setting": "MDA-MB-435", "result": 10.3, "unit": "µM"}, {"measurement": "GI50", "setting": "NCI-H522 lung", "result": 3.02, "unit": "µM"}, {"measurement": "TGI", "setting": "NCI-H522 lung", "result": 13.3, "unit": "µM"}, {"measurement": "GI50", "setting": "NCI-H23 lung", "result": 13.1, "unit": "µM"}, {"measurement": "TGI", "setting": "NCI-H23 lung", "result": 40.7, "unit": "µM"}, {"measurement": "GI50", "setting": "SK-MEL-28 melanoma", "result": 4.9, "unit": "µM"}, {"measurement": "TGI", "setting": "SK-MEL-28 melanoma", "result": 15.3, "unit": "µM"}, {"measurement": "GI50", "setting": "SN12C renal", "result": 3.8, "unit": "µM"}, {"measurement": "TGI", "setting": "SN12C renal", "result": 16.5, "unit": "µM"}, {"measurement": "GI50", "setting": "HS 578T breast", "result": 4.96, "unit": "µM"}, {"measurement": "TGI", "setting": "HS 578T breast", "result": 15.6, "unit": "µM"}, {"measurement": "GI50", "setting": "KM12 colon", "result": 0.939, "unit": "µM"}, {"measurement": "TGI", "setting": "KM12 colon", "result": 7.71, "unit": "µM"}, {"measurement": "GI50", "setting": "SNB-19 CNS", "result": 4.21, "unit": "µM"}, {"measurement": "TGI", "setting": "SNB-19 CNS", "result": 17.8, "unit": "µM"}, {"measurement": "GI50", "setting": "IGROV1 ovarian", "result": 5.81, "unit": "µM"}, {"measurement": "TGI", "setting": "IGROV1 ovarian", "result": 31, "unit": "µM"}, {"measurement": "GI50", "setting": "MOLT-4 leukemia", "result": 1.38, "unit": "µM"}, {"measurement": "TGI", "setting": "MOLT-4 leukemia", "result": "> 32", "unit": "µM"}, {"measurement": "GI50", "setting": "CAKI-1 renal", "result": 0.83, "unit": "µM"}, {"measurement": "TGI", "setting": "CAKI-1 renal", "result": 11.1, "unit": "µM"}, {"measurement": "GI50", "setting": "A549 NSCLC", "result": 1.84, "unit": "µM"}, {"measurement": "TGI", "setting": "A549 NSCLC", "result": 12.6, "unit": "µM"}, {"measurement": "GI50", "setting": "MCF7 breast", "result": 1.91, "unit": "µM"}, {"measurement": "TGI", "setting": "MCF7 breast", "result": 15.6, "unit": "µM"}, {"measurement": "GI50", "setting": "TK-10 renal", "result": 5.17, "unit": "µM"}, {"measurement": "TGI", "setting": "TK-10 renal", "result": 12.9, "unit": "µM"}, {"measurement": "GI50", "setting": "SF-268 CNS", "result": 2.17, "unit": "µM"}, {"measurement": "TGI", "setting": "SF-268 CNS", "result": 15.2, "unit": "µM"}, {"measurement": "GI50", "setting": "T-47D breast", "result": 2.9, "unit": "µM"}, {"measurement": "TGI", "setting": "T-47D breast", "result": 13.8, "unit": "µM"}, {"measurement": "GI50", "setting": "COLO 205 colon", "result": 2.46, "unit": "µM"}, {"measurement": "TGI", "setting": "COLO 205 colon", "result": 17.2, "unit": "µM"}, {"measurement": "GI50", "setting": "OVCAR-4 ovarian", "result": 2.63, "unit": "µM"}, {"measurement": "TGI", "setting": "OVCAR-4 ovarian", "result": 9.42, "unit": "µM"}, {"measurement": "GI50", "setting": "ACHN renal", "result": 1.28, "unit": "µM"}, {"measurement": "TGI", "setting": "ACHN renal", "result": 15.2, "unit": "µM"}]}]}
